In ChEMBL document CHEMBL1201861, “Genomics of Drug Sensitity in Cancer screening data, Wellcome Trust Sanger Institute”:

What was measured:
Assay in all cases: cells
CTV-1 = type: functional, cell-based; settings: Homo sapiens;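 further: growth inhibition of the cell line, read out with a cell viability assay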
Description: SANGER: Inhibition of human CTV-1 cell growth in a cell viability assay.

DB = type: functional, cell-based; settings: Homo sapiens
Description: SANGER: Inhibition of human DB cell growth in a cell viability assay.

DOHH-2 = type: functional, cell-based; settings: Homo sapiens;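 further: growth inhibition of human DOHH-2 cells, read out with a cell viability assay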
Description: SANGER: Inhibition of human DOHH-2 cell growth in a cell viability assay.

EFM-19 = type: functional, cell-based, Homo sapiens; settings: Homo sapiens, EFM-19;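 further: growth inhibition of human EFM-19 cells, measured in a cell viability assay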
Description: SANGER: Inhibition of human EFM-19 cell growth in a cell viability assay.

ES4 = type: functional, cell-based, Homo sapiens; settings: Homo sapiens, ES4;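 further: growth inhibition of human ES4 cells, read out by a cell viability assay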
Description: SANGER: Inhibition of human ES4 cell growth in a cell viability assay.

ES6 = type: functional, cell-based, Homo sapiens; settings: Homo sapiens, ES6;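 further: growth inhibition of human ES6 cells, read out with a cell viability assay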
Description: SANGER: Inhibition of human ES6 cell growth in a cell viability assay.

GI-1 = type: functional, cell-based, Homo sapiens; settings: Homo sapiens, GI-1;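 further: growth inhibition of human GI-1 cells, measured with a cell viability readout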
Description: SANGER: Inhibition of human GI-1 cell growth in a cell viability assay.

HCC1569 = type: functional, cell-based, Homo sapiens; settings: Homo sapiens, HCC1569;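 further: growth inhibition of human HCC1569 cells, read out with a cell viability assay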
Description: SANGER: Inhibition of human HCC1569 cell growth in a cell viability assay.

HEL = type: functional, cell-based, Homo sapiens; settings: Homo sapiens, HEL;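 further: growth inhibition of HEL cells, read out with a cell viability assay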
Description: SANGER: Inhibition of human HEL cell growth in a cell viability assay.

HOP-92 = type: functional, cell-based, Homo sapiens; settings: Homo sapiens, HOP-92;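 further: cell viability readout, with IC50 reflecting inhibition of HOP-92 cell growth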
Description: SANGER: Inhibition of human HOP-92 cell growth in a cell viability assay.

HSC-2 = type: functional, cell-based, Homo sapiens; settings: Homo sapiens, HSC-2;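 further: growth inhibition of human HSC-2 cells, read out by a cell viability assay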
Description: SANGER: Inhibition of human HSC-2 cell growth in a cell viability assay.

HT = type: functional, cell-based; settings: Homo sapiens
Description: SANGER: Inhibition of human HT cell growth in a cell viability assay.

HT-144 = type: functional, cell-based, Homo sapiens; settings: Homo sapiens, HT-144
Description: SANGER: Inhibition of human HT-144 cell growth in a cell viability assay.

IA-LM = type: functional, cell-based, Homo sapiens; settings: Homo sapiens, IA-LM;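 further: cell viability assay measuring growth inhibition of human IA-LM cells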
Description: SANGER: Inhibition of human IA-LM cell growth in a cell viability assay.

JEG-3 = type: functional, cell-based, Homo sapiens; settings: Homo sapiens, JEG-3;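 further: growth inhibition of human JEG-3 cells, read out with a cell viability assay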
Description: SANGER: Inhibition of human JEG-3 cell growth in a cell viability assay.

JVM-2 = type: functional, cell-based; settings: Homo sapiens;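 further: growth inhibition of JVM-2 cells determined by a cell viability assay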
Description: SANGER: Inhibition of human JVM-2 cell growth in a cell viability assay.

KARPAS-45 = type: functional, cell-based; settings: Homo sapiens;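 further: inhibition of cell line growth, read out through a viability assay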
Description: SANGER: Inhibition of human KARPAS-45 cell growth in a cell viability assay.

KURAMOCHI = type: functional, cell-based; settings: Homo sapiens;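 further: growth inhibition of KURAMOCHI cells, read out with a cell viability assay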
Description: SANGER: Inhibition of human KURAMOCHI cell growth in a cell viability assay.

KYSE-150 cell line = type: functional, cell-based, Homo sapiens; settings: Homo sapiens, KYSE-150;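 further: growth inhibition of human KYSE-150 cells, read out with a cell viability assay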
Description: SANGER: Inhibition of human KYSE-150 cell growth in a cell viability assay.

KYSE-410 = type: functional, cell-based, Homo sapiens; settings: Homo sapiens, KYSE-410;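 further: growth inhibition of KYSE-410 cells, measured through a cell viability readout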
Description: SANGER: Inhibition of human KYSE-410 cell growth in a cell viability assay.

LB2518-MEL = type: functional, cell-based, Homo sapiens; settings: Homo sapiens, LB2518-MEL;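 further: growth inhibition of human LB2518-MEL cells, measured with a cell viability assay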
Description: SANGER: Inhibition of human LB2518-MEL cell growth in a cell viability assay.

LCLC-97TM1 = type: functional, cell-based, Homo sapiens; settings: Homo sapiens, LCLC-97TM1;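 further: cell viability assay measuring growth inhibition of human LCLC-97TM1 cells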
Description: SANGER: Inhibition of human LCLC-97TM1 cell growth in a cell viability assay.

LS-411N = type: functional, cell-based, Homo sapiens; settings: Homo sapiens, LS-411N
MFE-280 = type: functional, cell-based, Homo sapiens; settings: Homo sapiens, MFE-280;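 further: growth inhibition of MFE-280 cells, determined with a cell viability readout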
Description: SANGER: Inhibition of human MFE-280 cell growth in a cell viability assay.

MFM-223 = type: functional, cell-based, Homo sapiens; settings: Homo sapiens, MFM-223
Description: SANGER: Inhibition of human MFM-223 cell growth in a cell viability assay.

MN-60 = type: functional, cell-based; settings: Homo sapiens;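 further: growth inhibition of the MN-60 cell line, determined with a cell viability assay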
Description: SANGER: Inhibition of human MN-60 cell growth in a cell viability assay.

MZ1-PC = type: functional, cell-based, Homo sapiens; settings: Homo sapiens, MZ1-PC;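 further: cell viability assay measuring growth inhibition of human MZ1-PC cells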
Description: SANGER: Inhibition of human MZ1-PC cell growth in a cell viability assay.

NCI-H1623 = type: functional, cell-based, Homo sapiens; settings: Homo sapiens, NCI-H1623;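 further: cell viability assay used as the read-out for growth inhibition of NCI-H1623 cells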
Description: SANGER: Inhibition of human NCI-H1623 cell growth in a cell viability assay.

NCI-H1648 = type: functional, cell-based, Homo sapiens; settings: Homo sapiens, NCI-H1648;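 further: cell viability assay measuring inhibition of NCI-H1648 cell growth, from the Sanger screening data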
Description: SANGER: Inhibition of human NCI-H1648 cell growth in a cell viability assay.

NCI-H1650 = type: functional, cell-based, Homo sapiens; settings: Homo sapiens, NCI-H1650;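 further: growth inhibition of human NCI-H1650 cells measured by a cell viability assay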
Description: SANGER: Inhibition of human NCI-H1650 cell growth in a cell viability assay.

NCI-H2342 = type: functional, cell-based; settings: Homo sapiens;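 further: growth inhibition of the cancer cell line, determined with a cell viability assay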
Description: SANGER: Inhibition of human NCI-H2342 cell growth in a cell viability assay.

NCI-H441 = type: functional, cell-based; settings: Homo sapiens;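 further: growth inhibition of NCI-H441 cells, read out with a cell viability assay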
Description: SANGER: Inhibition of human NCI-H441 cell growth in a cell viability assay.

NCI-H446 = type: functional, cell-based; settings: Homo sapiens;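 further: growth inhibition of NCI-H446 cells determined by a cell viability assay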
Description: SANGER: Inhibition of human NCI-H446 cell growth in a cell viability assay.

NCI-H720 = type: functional, cell-based; settings: Homo sapiens;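 further: growth inhibition of human NCI-H720 cells determined by a cell viability assay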
Description: SANGER: Inhibition of human NCI-H720 cell growth in a cell viability assay.

SNU-5 = type: functional, cell-based; settings: Homo sapiens;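 further: cell viability readout used to measure growth inhibition in human NCI-SNU-5 cells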
Description: SANGER: Inhibition of human NCI-SNU-5 cell growth in a cell viability assay.

NMC-G1 = type: functional, cell-based, Homo sapiens; settings: Homo sapiens, NMC-G1;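 further: growth inhibition of the NMC-G1 cell line, measured with a cell viability read-out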
Description: SANGER: Inhibition of human NMC-G1 cell growth in a cell viability assay.

OVCAR-4 = type: functional, cell-based, Homo sapiens; settings: Homo sapiens, OVCAR-4;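 further: growth inhibition of human OVCAR-4 cells, measured with a cell viability assay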
Description: SANGER: Inhibition of human OVCAR-4 cell growth in a cell viability assay.

PFSK-1 = type: functional, cell-based, Homo sapiens; settings: Homo sapiens, PFSK-1;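 further: cell viability assay measuring how strongly compounds suppress growth of human PFSK-1 cells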
Description: SANGER: Inhibition of human PFSK-1 cell growth in a cell viability assay.

SBC-1 = type: functional, cell-based; settings: Homo sapiens;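 further: cell viability assay measuring growth inhibition of the SBC-1 cell line, IC50 being the concentration that halves growth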
Description: SANGER: Inhibition of human SBC-1 cell growth in a cell viability assay.

SK-LU-1 = type: functional, cell-based, Homo sapiens; settings: Homo sapiens, SK-LU-1;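 further: cell viability assay measuring growth inhibition of human SK-LU-1 cells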
Description: SANGER: Inhibition of human SK-LU-1 cell growth in a cell viability assay.

SK-MEL-30 = type: functional, cell-based; settings: Homo sapiens;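 further: growth inhibition of SK-MEL-30 cells, determined with a cell viability assay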
Description: SANGER: Inhibition of human SK-MEL-30 cell growth in a cell viability assay.

SNU-387 = type: functional, cell-based, Homo sapiens; settings: Homo sapiens, SNU-387
Description: SANGER: Inhibition of human SNU-387 cell growth in a cell viability assay.

SW1417 = type: functional, cell-based, Homo sapiens; settings: Homo sapiens, SW1417;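 further: growth inhibition of human SW1417 cells, read out with a cell viability assay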
Description: SANGER: Inhibition of human SW1417 cell growth in a cell viability assay.

SW626 = type: functional, cell-based, Homo sapiens; settings: Homo sapiens, SW626;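 further: growth inhibition of SW626 cells, measured with a cell viability assay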
Description: SANGER: Inhibition of human SW626 cell growth in a cell viability assay.

SW837 = type: functional, cell-based, Homo sapiens; settings: Homo sapiens, SW837;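 further: growth inhibition of SW837 cells, determined with a cell viability assay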
Description: SANGER: Inhibition of human SW837 cell growth in a cell viability assay.

SAOS-2 = type: functional, cell-based, Homo sapiens; settings: Homo sapiens, SAOS-2;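 further: growth inhibition of human Saos-2 cells determined by a cell viability assay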
Description: SANGER: Inhibition of human Saos-2 cell growth in a cell viability assay.

8-MG-BA = type: functional, cell-based, Homo sapiens; settings: Homo sapiens, 8-MG-BA;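 further: growth inhibition of 8-MG-BA cells, read out with a cell viability assay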
Description: SANGER: Inhibition of human 8-MG-BA cell growth in a cell viability assay.

8505C = type: functional, cell-based, Homo sapiens; settings: Homo sapiens, 8505C
Description: SANGER: Inhibition of human 8505C cell growth in a cell viability assay.

A101D = type: functional, cell-based, Homo sapiens; settings: Homo sapiens, A101D;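 further: growth inhibition of the cell line, measured with a viability assay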
Description: SANGER: Inhibition of human A101D cell growth in a cell viability assay.

ACHN = type: functional, cell-based, Homo sapiens; settings: Homo sapiens, ACHN;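 further: cell viability read-out used to gauge how strongly growth of human ACHN cells is suppressed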
Description: SANGER: Inhibition of human ACHN cell growth in a cell viability assay.

BT-20 = type: functional, cell-based, Homo sapiens; settings: Homo sapiens, BT-20;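 further: cell viability assay measuring suppression of growth in human BT-20 cells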
Description: SANGER: Inhibition of human BT-20 cell growth in a cell viability assay.

U2OS = type: functional, cell-based, Homo sapiens, U-2-OS; settings: Homo sapiens, U2OS;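 further: growth inhibition of human U-2-OS cells, determined with a cell viability assay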
Description: SANGER: Inhibition of human U-2-OS cell growth in a cell viability assay.

VM-CUB-1 = type: functional, cell-based; settings: Homo sapiens;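 further: cell viability assay measuring growth inhibition of the human VM-CUB-1 cell line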
Description: SANGER: Inhibition of human VM-CUB-1 cell growth in a cell viability assay.

Measured: IC50

COc1cc([C@@H]2c3cc4c(cc3[C@@H](O[C@@H]3O[C@@H]5CO[C@@H](C)O[C@H]5[C@H](O)[C@H]3O)[C@H]3COC(=O)[C@H]23)OCO4)cc(OC)c1O [ETOPOSIDE]
3440 nM: IA-LM
713 nM: GI-1
521 nM: ES4
3900 nM: HEL
46.9 nM: 8-MG-BA
20.1 nM: HT-144
12800 nM: KYSE-410
811 nM: MZ1-PC
2580 nM: VM-CUB-1
766 nM: LCLC-97TM1
1200 nM: A101D
555 nM: NCI-H2342
7920 nM: SNU-5
15300 nM: HT
699 nM: KURAMOCHI
839 nM: ACHN
6530 nM: DB
3040 nM: JEG-3
11200 nM: NCI-H441
410 nM: CTV-1
14000 nM: NCI-H1623
706 nM: HSC-2
530 nM: KYSE-150 cell line
1740 nM: NCI-H1650
868 nM: EFM-19
3580 nM: HCC1569
8240 nM: SK-MEL-30
5020 nM: HOP-92
1290 nM: SK-LU-1
693 nM: 8505C
8900 nM: SW626
> 16000 nM: ES6 | JVM-2 | KARPAS-45 | LB2518-MEL | MFE-280 | MFM-223 | MN-60 | NCI-H1648 | NCI-H446 | NCI-H720 | OVCAR-4 | PFSK-1 | SBC-1 | SNU-387 | SW1417 | SW837 | SAOS-2 | U2OS
347 nM: DOHH-2
3320 nM: NMC-G1
925 nM: LS-411N
4580 nM: BT-20

Cc1cnc(-c2cnc(NCCNc3ccc(C#N)cn3)nc2-c2ccc(Cl)cc2Cl)[nH]1 [LADUVIGLUSIB]
> 2560 nM: CTV-1 | DB | DOHH-2 | EFM-19 | ES4 | ES6 | GI-1 | HCC1569 | HEL | HOP-92 | HSC-2 | HT | HT-144 | IA-LM | JEG-3 | JVM-2 | KARPAS-45 | KURAMOCHI | KYSE-150 cell line | KYSE-410 | LB2518-MEL | LCLC-97TM1 | LS-411N | MFE-280 | MFM-223 | MN-60 | MZ1-PC | NCI-H1623 | NCI-H1648 | NCI-H1650 | NCI-H2342 | NCI-H441 | NCI-H446 | NCI-H720 | SNU-5 | NMC-G1 | OVCAR-4 | PFSK-1 | SBC-1 | SK-LU-1 | SK-MEL-30 | SNU-387 | SW1417 | SW626 | SW837 | SAOS-2 | 8-MG-BA | 8505C | A101D | ACHN | BT-20 | U2OS | VM-CUB-1

C[C@]1(O)C[C@@H](c2nc(-c3ccc4ccc(-c5ccccc5)nc4c3)c3c(N)nccn32)C1 [LINSITINIB]
410 nM: ES4
165 nM: SAOS-2
> 2560 nM: CTV-1 | DB | DOHH-2 | EFM-19 | GI-1 | HCC1569 | HEL | HOP-92 | HSC-2 | HT | IA-LM | JEG-3 | JVM-2 | KARPAS-45 | KURAMOCHI | KYSE-150 cell line | KYSE-410 | LB2518-MEL | LS-411N | MFE-280 | MFM-223 | MN-60 | MZ1-PC | NCI-H1623 | NCI-H1648 | NCI-H1650 | NCI-H2342 | NCI-H441 | NCI-H446 | NCI-H720 | SNU-5 | NMC-G1 | OVCAR-4 | PFSK-1 | SBC-1 | SK-LU-1 | SK-MEL-30 | SW1417 | SW626 | SW837 | 8-MG-BA | 8505C | A101D | ACHN | BT-20 | U2OS | VM-CUB-1
262 nM: HT-144
911 nM: ES6
210 nM: LCLC-97TM1
994 nM: SNU-387

COc1ccc(C2=N[C@@H](c3ccc(Cl)cc3)[C@@H](c3ccc(Cl)cc3)N2C(=O)N2CCNC(=O)C2)c(OC(C)C)c1 [NUTLIN-3]
> 8000 nM: DB | EFM-19 | ES6 | GI-1 | HCC1569 | HEL | HOP-92 | HSC-2 | HT | IA-LM | JEG-3 | JVM-2 | KARPAS-45 | KURAMOCHI | KYSE-150 cell line | KYSE-410 | LB2518-MEL | LCLC-97TM1 | LS-411N | MFE-280 | MFM-223 | MZ1-PC | NCI-H1623 | NCI-H1648 | NCI-H2342 | NCI-H441 | NCI-H446 | NCI-H720 | SNU-5 | NMC-G1 | OVCAR-4 | PFSK-1 | SBC-1 | SK-LU-1 | SK-MEL-30 | SNU-387 | SW1417 | SW626 | SW837 | SAOS-2 | 8-MG-BA | 8505C | ACHN | BT-20 | VM-CUB-1
2420 nM: DOHH-2
2650 nM: HT-144
3440 nM: MN-60
2910 nM: U2OS
2350 nM: A101D
7390 nM: NCI-H1650
2430 nM: ES4
4080 nM: CTV-1
